System: stressed mice
Assay: Open field test (OFT), locomotor activity, Examples 1-3
Format: in vivo
Conditions: UCMS-stressed male ICR mice; herbs and NHT 30 mg/kg, escitalopram 15 mg/kg i.p., 3 weeks
Method: ICR outbred 28-30 days old male mice (Envigo, Israel) were maintained in the vivarium of the Open University lab in Hadassah Ein Karem medical cement, Jerusalem. Mice were group housed (5 mice per cage) and each cage contained mice from all treatment groups. Mice were given ad libitum access to food and water except during stressor application (with the exclusion of the light/dark cycle reversal). Mice kept on a reversed 12 h light/dark cycle (lights on 7:00 pm-7:00 am) while experimental procedures were performed during the dark phase under red light. All experiments were approved by the Open University of Israel committee for animal care and use. Methods were carried out in accordance with the NIH guidelines.
Crataegus pinnatifida, Triticum aestivum, Lilium brownii and Fructus zizyphi jujuba were purchased as freeze-dried granules (KPC Products, Inc., Irvine, CA, USA). […]
The open field consists of an empty square arena (40×40×40 cm) and surrounded by Perspex opaque walls. Each mouse was placed in the center of the arena and video recorded for 5 min. […] Locomotor activity was expressed as the percentage of time that the mouse was moving in the arena in a velocity above 0.1 pixel/sec. […]

## CN(C)CCC[C@@]1(c2ccc(F)cc2)OCc2cc(C#N)ccc21 [escitalopram]
  locomotor activity in the OFT: No change in locmotor activity

Reference: patent publication US20240016875A1, “SHAN-ZHA FOR THE TREATMENT OF DEPRESSION AND ANXIETY DISORDERS” (THE OPEN UNIVERSITY, priority 2020, published 2024)
